This is an account of results in patent US10766869B2, “Triazoles for the treatment of demyelinating dieases” (Vertex Pharmaceuticals Incorporated, priority 2015, dated 2020).

The test system of this assay is primary rat mixed cortical cells. Nature of the assay: In vitro myelination assay (MBP positive myelin strands, fold myelin pixels above background). The format is cell-based. The conditions noted are these: Rattus norvegicus, relative to baseline of no added compound; for fold induction at 1 µM: 1.0 μM compound, read-out: Fold myelin pixels above background, 1.0 μM; for fold induction at 10 µM: 10.0 μM compound, read-out: Fold myelin pixels above background, 10.0 μM. In a few lines: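 Read-out is total MBP-positive myelin strand pixels per well, detected by custom ridge-tracing software and reported as fold over untreated baseline. Primary P1 rat mixed cortical cells received compound (1.0 or 10.0 μM) for 14 days, with medium half-replaced on days 6 and 10. Standard deviation was taken across all replicates.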

As to `Cc1cc(Nc2ncn(-c3cc(F)cc(F)c3)n2)cc(C2CCN(C)CC2)c1` [Compound 151, 1-(3,5-difluorophenyl)-N-[3-methyl-5-(1-methyl-4-piperidyl)phenyl]-1,2,4-triazol-3-amine], the fold induction at 1 µM was 10 to 100 and the fold induction at 10 µM is no more than 1.

Regarding `Cc1cc(Nc2ncn(-c3ccccc3)n2)cc(N2CC(CC(C)C)N3CCC[C@@H]3C2)c1` (stereo partly drawn) [Compound 152, N-[3-[(8aR)-4-isobutyl-3,4,6,7,8,8a-hexahydro-1H-pyrrolo[1,2-a]pyrazin-2-yl]-5-methyl-phenyl]-1-phenyl-1,2,4-triazol-3-amine], the fold induction at 1 µM is no more than 1 and the fold induction at 10 µM is no more than 1.

Turning to `Fc1cc(-n2cnc(Nc3cc(C(F)F)cc(N4CCN(C5CC5)CC4)c3)n2)ccn1` [Compound 153, N-[3-(4-cyclopropylpiperazin-1-yl)-5-(difluoromethyl)phenyl]-1-(2-fluoro-4-pyridyl)-1,2,4-triazol-3-amine], the fold induction at 1 µM is 100 to 1000 and the fold induction at 10 µM lay within 10 to 100.

Consider `Cc1cc(Nc2ncn(-c3cccc(F)n3)n2)cc(N2CCN(C3COC3)CC2)c1` [Compound 154, 1-(6-fluoro-2-pyridyl)-N-[3-methyl-5-[4-(oxetan-3-yl)piperazin-1-yl]phenyl]-1,2,4-triazol-3-amine], for which the fold induction at 1 µM lay within 100 to 1000 and the fold induction at 10 µM is 100 to 1000.

Turning to `Cc1cc(Nc2ncn(-c3ccnc(O)c3)n2)cc(N2CCOCC2)c1` [Compound 155, 4-[3-(3-methyl-5-morpholino-anilino)-1,2,4-triazol-1-yl]pyridin-2-ol], the fold induction at 1 µM is 100 to 1000 and the fold induction at 10 µM was in the range of 100 to 1000.

Turning to `Cc1cc(Nc2ncn(-c3ccccc3)n2)cc(N2CCN(C)CC2)n1` [Compound 156, 2-methyl-6-(4-methylpiperazin-1-yl)-N-(1-phenyl-1,2,4-triazol-3-yl)pyridin-4-amine], the fold induction at 1 µM lay within 1000 to 10000 and the fold induction at 10 µM is no more than 1.

As to `Cc1cc(Nc2ncn(-c3ccccc3)n2)cc(N2CCN3CCC[C@@H]3C2)c1` [Compound 157, N-[3-[(8aR)-3,4,6,7,8,8a-hexahydro-1H-pyrrolo[1,2-a]pyrazin-2-yl]-5-methyl-phenyl]-1-phenyl-1,2,4-triazol-3-amine], the fold induction at 1 µM fell in the range of 1000 to 10000 and the fold induction at 10 µM lay in the range of 1000 to 10000.

Take `Fc1cc(Nc2ncn(-c3cccc(F)c3)n2)cc(N2CCOCC2)c1` [Compound 158, N-(3-fluoro-5-morpholino-phenyl)-1-(3-fluorophenyl)-1,2,4-triazol-3-amine]: the fold induction at 1 µM lay within 10 to 100 and the fold induction at 10 µM is 100 to 1000.

For the compound `Cc1cc(Nc2ncn(-c3ccccc3)n2)cc(N2CCNCC2)c1` [Compound 159, N-(3-methyl-5-piperazin-1-yl-phenyl)-1-phenyl-1,2,4-triazol-3-amine], the fold induction at 1 µM fell in the range of 1000 to 10000 and the fold induction at 10 µM was no more than 1.

For `Cc1cc(Nc2ncn(-c3ccccc3)n2)cc(C2=CCN(C3COC3)C2)c1` [Compound 160, N-[3-methyl-5-[1-(oxetan-3-yl)-2,5-dihydropyrrol-3-yl]phenyl]-1-phenyl-1,2,4-triazol-3-amine], the fold induction at 1 µM lay within 1000 to 10000 and the fold induction at 10 µM was no more than 1.

As to `Cc1cc(Nc2ncn(-c3cc(F)cc(F)c3)n2)cc(N2CCC(N3CCCC3=O)CC2)c1` [Compound 161, 1-[1-[3-[[1-(3,5-difluorophenyl)-1,2,4-triazol-3-yl]amino]-5-methyl-phenyl]-4-piperidyl]pyrrolidin-2-one], the fold induction at 1 µM lay within 10 to 100 and the fold induction at 10 µM lay within 10 to 100.

Regarding `COCC1CCN(c2cc(C)cc(Nc3ncn(-c4cc(F)cc(F)c4)n3)c2)CC1` [Compound 162, 1-(3,5-difluorophenyl)-N-[3-[4-(methoxymethyl)-1-piperidyl]-5-methyl-phenyl]-1,2,4-triazol-3-amine], the fold induction at 1 µM was no more than 1 and the fold induction at 10 µM is no more than 1.

On to `O=c1cc(-n2cnc(Nc3cc(C(F)F)cc(N4CCN(C5COC5)CC4)c3)n2)cc[nH]1` [Compound 163, 4-[3-[3-(difluoromethyl)-5-[4-(oxetan-3-yl)piperazin-1-yl]anilino]-1,2,4-triazol-1-yl]-1H-pyridin-2-one], for which the fold induction at 1 µM lay within 100 to 1000 and the fold induction at 10 µM is no more than 1.

As to `COC1CCN(c2cc(C)cc(Nc3ncn(-c4cc(F)cc(F)c4)n3)c2)C1` (stereo not drawn) [Compound 164, 1-(3,5-difluorophenyl)-N-[3-(3-methoxypyrrolidin-1-yl)-5-methyl-phenyl]-1,2,4-triazol-3-amine], the fold induction at 1 µM lay within 1 to 10 and the fold induction at 10 µM was in the range of 1 to 10.

On to `c1ccc(-n2cnc(Nc3cc(C4CCOC4)cc(N4CCOCC4)c3)n2)cc1` (stereo not drawn) [Compound 165, N-(3-morpholino-5-tetrahydrofuran-3-yl-phenyl)-1-phenyl-1,2,4-triazol-3-amine], for which the fold induction at 1 µM lay in the range of 100 to 1000 and the fold induction at 10 µM was in the range of 10 to 100.

With `Fc1cc(Nc2ncn(-c3cccc(F)c3)n2)cc(N2CCCOCC2)c1` [Compound 166, N-[3-fluoro-5-(1,4-oxazepan-4-yl)phenyl]-1-(3-fluorophenyl)-1,2,4-triazol-3-amine], the fold induction at 1 µM was in the range of 100 to 1000 and the fold induction at 10 µM was in the range of 10 to 100.

With `Fc1ccc(-n2cnc(Nc3cc(F)cc(N4CCCC4)c3)n2)cc1` [Compound 167, 1-(4-fluorophenyl)-N-(3-fluoro-5-pyrrolidin-1-yl-phenyl)-1,2,4-triazol-3-amine], the fold induction at 1 µM is no more than 1 and the fold induction at 10 µM fell in the range of 100 to 1000.

For `Brc1cc(Nc2ncn(-c3ccccc3)n2)cc(N2CCOCC2)c1` [Compound 168, N-(3-bromo-5-morpholino-phenyl)-1-phenyl-1,2,4-triazol-3-amine], the fold induction at 1 µM was in the range of 1000 to 10000 and the fold induction at 10 µM lay within 1000 to 10000.

With `Cc1cc(Nc2ncn(-c3ccc(F)c(F)c3)n2)cc(N2CCC(C3COC3)CC2)c1` [Compound 169, 1-(3,4-difluorophenyl)-N-[3-methyl-5-[4-(oxetan-3-yl)-1-piperidyl]phenyl]-1,2,4-triazol-3-amine], the fold induction at 1 µM lay within 10 to 100 and the fold induction at 10 µM is 1 to 10.

In the case of `Fc1cc(F)cc(-n2cnc(Nc3cc(C4CC4)nc(N4CCCC4)c3)n2)c1` [Compound 170, 2-cyclopropyl-N-[1-(3,5-difluorophenyl)-1,2,4-triazol-3-yl]-6-pyrrolidin-1-yl-pyridin-4-amine], the fold induction at 1 µM lay in the range of 10 to 100 and the fold induction at 10 µM was 100 to 1000.

As for `Cc1cc(Nc2ncn(-c3cc(F)cc(F)c3)n2)cc(N2CC3(COC3)C2)c1` [Compound 171, 1-(3,5-difluorophenyl)-N-[3-methyl-5-(6-oxa-2-azaspiro[3.3]heptan-2-yl)phenyl]-1,2,4-triazol-3-amine], the fold induction at 1 µM lay in the range of 10 to 100 and the fold induction at 10 µM was in the range of 100 to 1000.

On to `Cc1cc(Nc2ncn(-c3ccccc3)n2)cc(N2CCN(C3CCCOC3)CC2)c1` (stereo not drawn) [Compound 172, N-[3-methyl-5-(4-tetrahydropyran-3-ylpiperazin-1-yl)phenyl]-1-phenyl-1,2,4-triazol-3-amine], for which the fold induction at 1 µM lay in the range of 1000 to 10000 and the fold induction at 10 µM lay in the range of 1 to 10.

On to `CCc1cc(Nc2ncn(-c3cc(F)cc(F)c3)n2)cc(N2CC(N3CCOCC3)C2)c1` [Compound 173, 1-(3,5-difluorophenyl)-N-[3-ethyl-5-(3-morpholinoazetidin-1-yl)phenyl]-1,2,4-triazol-3-amine], for which the fold induction at 1 µM fell in the range of 100 to 1000 and the fold induction at 10 µM is 10 to 100.

As to `Cc1cc(Nc2ncn(-c3ccncn3)n2)cc(N2CCN(C3COC3)CC2)c1` [Compound 174, N-[3-methyl-5-[4-(oxetan-3-yl)piperazin-1-yl]phenyl]-1-pyrimidin-4-yl-1,2,4-triazol-3-amine], the fold induction at 1 µM lay within 1 to 10 and the fold induction at 10 µM was in the range of 10 to 100.

For `Fc1cccc(-n2cnc(Nc3cc(N4CCN(C5COC5)CC4)cc(C(F)(F)F)c3)n2)c1` [Compound 175, 1-(3-fluorophenyl)-N-[3-[4-(oxetan-3-yl)piperazin-1-yl]-5-(trifluoromethyl)phenyl]-1,2,4-triazol-3-amine], the fold induction at 1 µM was in the range of 1000 to 10000 and the fold induction at 10 µM was no more than 1.

On to `Cc1cc(Nc2ncn(-c3ccncn3)n2)cc(N2CCN(C3CC3)CC2)c1` [Compound 176, N-[3-(4-cyclopropylpiperazin-1-yl)-5-methyl-phenyl]-1-pyrimidin-4-yl-1,2,4-triazol-3-amine], for which the fold induction at 1 µM was 100 to 1000 and the fold induction at 10 µM was 100 to 1000.

Consider `Fc1cc(Nc2ncn(-c3ccc(F)cc3F)n2)cc(NC2CNC2)c1` [Compound 177, N1-(azetidin-3-yl)-N3-[1-(2,4-difluorophenyl)-1,2,4-triazol-3-yl]-5-fluoro-benzene-1,3-diamine], for which the fold induction at 1 µM is no more than 1 and the fold induction at 10 µM is no more than 1.

For the compound `Cc1cc(Nc2ncn(-c3cc(F)cc(F)c3)n2)cc(O[C@@H]2CCN(C3COC3)C2)c1` [Compound 178, 1-(3,5-difluorophenyl)-N-[3-methyl-5-[(3R)-1-(oxetan-3-yl)pyrrolidin-3-yl]oxy-phenyl]-1,2,4-triazol-3-amine], the fold induction at 1 µM lay in the range of 1000 to 10000 and the fold induction at 10 µM fell in the range of 1 to 10.

Consider `Cc1cc(Nc2ncn(-c3ccccc3)n2)cc(N2CCCN(C)CC2)c1` [Compound 179, N-[3-methyl-5-(4-methyl-1,4-diazepan-1-yl)phenyl]-1-phenyl-1,2,4-triazol-3-amine], for which the fold induction at 1 µM was 100 to 1000 and the fold induction at 10 µM was no more than 1.

Take `Cc1cc(Nc2ncn(-c3ccncn3)n2)cc(C2CCCN(C3COC3)C2)c1` (stereo not drawn) [Compound 180, N-[3-methyl-5-[1-(oxetan-3-yl)-3-piperidyl]phenyl]-1-pyrimidin-4-yl-1,2,4-triazol-3-amine]: the fold induction at 1 µM lay within 100 to 1000 and the fold induction at 10 µM is no more than 1.
